Laboratory results published in patent publication US8163737B2 (Vertex Pharmaceuticals Incorporated, priority 2006, dated 2012).

Molecular target: endogenous CGRP receptor (Homo sapiens, UniProt O60894+Q16602)
Assay: CGRP functional antagonism using SK-N-MC-BLA (4C10), β-lactamase transcriptional reporter assay
Format: cell-based
Conditions: SK-N-MC (4C10) cells, inhibition of β-lactamase expression in the presence of 200 pM CGRP
From the text: Measuring CGRP Functional Antagonism Using SK-N-MC-BLA (4C10):
CGRP functional antagonism was characterized in a cell based transcriptional assay using a recombinant SK-N-MC line. To introduce the transcriptional reporter system, SK-N-MC cell line was transduced with a retroviral vector containing β-lactamase gene downstream of cAMP responsive promoter. The expression of β-lactamase is triggered by cAMP increase that is a downstream event of activation of endogenous CGRP receptor. Single clones were separated using Fluorescent Activated Cell Sorting (FACS) based on CGRP induced β-lactamase activity. β-lactamase activity was measured using a fluorescence energy transfer (FRET) dye, CCF4. […] To evaluate functional antagonist activity of compounds in SK-N-MC (4C10) line, compounds were evaluated for their inhibition of β-lactamase expression in the presence of CGRP.
SK-N-MC (4C10) was cultured in Minimal Essential Media (MEM) (Invitrogen) supplemented with 1 mM non-essential amino acids solution (Invitrogen), 100 units/ml Penicillin-Streptomycin (Invitrogen), 1 mM sodium pyruvate (Invitrogen) and 10% fetal bovine serum. For the β-lactamase assay, low serum, 1% FBS in MEM was used. 30,000 cells were plated into each wells of poly-D-lysine coated 384-well plate (Becton Dickinson) a day prior to the assay. SK-N-MC (4C10) was preincubated with compounds for 30 min before the addition of 200 pM CGRP. The assay was incubated for 3 hours at 37° C. to allow β-lactamase expression. CCF4 dye was added and incubated for 2 hours at room temperature. […] Curve fitting and IC50 calculation were carried about using MOD3.

endogenous CGRP receptor, sequence (Q16602 23-461): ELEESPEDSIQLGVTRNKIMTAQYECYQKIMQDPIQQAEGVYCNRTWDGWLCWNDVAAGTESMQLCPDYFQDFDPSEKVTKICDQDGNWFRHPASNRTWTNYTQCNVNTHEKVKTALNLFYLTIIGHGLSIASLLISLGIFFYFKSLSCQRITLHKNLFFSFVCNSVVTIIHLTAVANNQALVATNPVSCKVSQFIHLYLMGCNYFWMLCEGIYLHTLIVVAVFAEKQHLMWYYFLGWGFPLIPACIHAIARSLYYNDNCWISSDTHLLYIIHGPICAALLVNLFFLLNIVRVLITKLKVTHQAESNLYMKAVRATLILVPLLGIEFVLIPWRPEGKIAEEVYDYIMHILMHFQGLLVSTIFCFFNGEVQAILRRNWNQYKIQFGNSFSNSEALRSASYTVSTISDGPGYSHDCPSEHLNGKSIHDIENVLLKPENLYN
endogenous CGRP receptor, sequence (O60894 27-148): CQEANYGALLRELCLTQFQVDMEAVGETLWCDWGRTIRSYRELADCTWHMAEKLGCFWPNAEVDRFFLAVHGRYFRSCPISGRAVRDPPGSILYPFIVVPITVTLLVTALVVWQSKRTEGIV

IC50 [µM] | Compound
> 5 | CCCCCCCC1SC(CC(=O)N2CCC(N3Cc4ccccc4NC3=O)CC2)C(=O)N1CCC(C)C (stereo not drawn) [Compound 71]
< 1 | Cc1ccc(C2SC(CC(=O)N3CCC(N4CCc5ccccc5NC4=O)CC3)C(=O)N2CCC(C)C)c(C)c1 (stereo not drawn) [Compound 73]
1 to 5 | CCCCCCCC1SC(CC(=O)N2CCC(N3CCc4ccccc4NC3=O)CC2)C(=O)N1CCC(C)C (stereo not drawn) [Compound 74]
1 to 5 | CC(C)CCN1C(=O)C(CC(=O)N2CCC(N3Cc4ccccc4NC3=O)CC2)SC1C(C)(C)C (stereo not drawn) [Compound 75]
> 5 | CN1CCCC1CCN1C(=O)C(CC(=O)N2CCC(N3Cc4ccccc4NC3=O)CC2)SC1c1ccccc1 (stereo not drawn) [Compound 77]
1 to 5 | CCN(CC)CCN1C(=O)C(CC(=O)N2CCC(N3Cc4ccccc4NC3=O)CC2)SC1c1ccccc1 (stereo not drawn) [Compound 82]
< 1 | O=C(CC1SC(c2ccccc2)N(CC2CCCO2)C1=O)N1CCC(N2CCc3ccccc3NC2=O)CC1 (stereo not drawn) [Compound 83]
> 5 | CN1CCN(c2ccccc2C2SC(CC(=O)N3CCC(CO)CC3)C(=O)N2CCC(C)(C)C)CC1 (stereo not drawn) [Compound 85]
1 to 5 | CC(C)CCN1C(=O)C(CC(=O)N2CCC(N3Cc4ccccc4NC3=O)CC2)SC12CCCCC2 (stereo not drawn) [Compound 86]
< 1 | CC(C)CCN1C(=O)C(CC(=O)N2CCC(N3CCc4ccccc4NC3=O)CC2)SC1c1c(Cl)cccc1Cl (stereo not drawn) [Compound 89]
< 1 | CC(C)CCN1C(=O)C(CC(=O)N2CCC(N3CCc4ccccc4NC3=O)CC2)SC12CCCCCC2 (stereo not drawn) [Compound 91]
< 1 | O=C(CC1SC(c2cccc(F)c2F)N(CC2CCCCC2)C1=O)N1CCC(N2Cc3ccccc3NC2=O)CC1 (stereo not drawn) [Compound 92]
> 5 | CC(C)(C)CCN1C(=O)C(CC(=O)N2CCC(N3Cc4ccccc4NC3=O)CC2)SC1c1cccc2cc[nH]c12 (stereo not drawn) [Compound 94]
< 1 | CC(C)CCN1C(=O)C(CC(=O)N2CCC(N3Cc4ccccc4NC3=O)CC2)SC1C1CCCCC1 (stereo not drawn) [Compound 95]
1 to 5 | C=CCN1C(=O)C(CC(=O)N2CCC(N3CCc4ccccc4NC3=O)CC2)SC1c1ccccc1 (stereo not drawn) [Compound 96]
> 5 | CN1CCN(c2ccccc2[C@H]2SC(CC(=O)N3CCCCC3)C(=O)N2CCC(C)(C)C)CC1 (stereo partly drawn) [Compound 97]
1 to 5 | CC(C)CCN1C(=O)C(CC(=O)N2CCC(N3CCc4ccccc4NC3=O)CC2)SC1Cc1ccccc1 (stereo not drawn) [Compound 98]
< 1 | CC1=CCCC(C)C1C1SC(CC(=O)N2CCC(N3Cc4ccccc4NC3=O)CC2)C(=O)N1CCC(C)C (stereo not drawn) [Compound 100]

IC50 [µM] | Compound
> 5 | CC(C)CCN1C(=O)C(CC(=O)N2CCC(N3Cc4ccccc4NC3=O)CC2)SC1C(C)c1ccccc1 (stereo not drawn) [Compound 101]
> 5 | CCCOc1ccc(C2SC(CC(=O)N3CCC(N4Cc5ccccc5NC4=O)CC3)C(=O)N2CCC(C)C)cc1 (stereo not drawn) [Compound 103]
> 5 | O=C(CC1SC(c2ccccc2)N(Cc2ccncc2)C1=O)N1CCC(n2c(=O)[nH]c3ccccc32)CC1 (stereo not drawn) [Compound 108]
> 5 | CC(C)CCN1C(=O)C(CC(=O)N2CCC3(CC2)C(=O)Nc2ccccc23)SC1c1ccccc1 (stereo not drawn) [Compound 111]
> 5 | CC(C)CCN1C(=O)C(CC(=O)N2CCC(n3cc(-c4ccccc4)[nH]c3=O)CC2)SC1c1ccc(Cl)cc1 (stereo not drawn) [Compound 112]
< 1 | CC(C)CCN1C(=O)C(CC(=O)N2CCC(N3Cc4ccccc4NC3=O)CC2)SC1c1ccccc1N(C)C (stereo not drawn) [Compound 121]
< 1 | Cc1cccc(C)c1C1SC(CC(=O)N2CCC(N3CCc4ccccc4NC3=O)CC2)C(=O)N1CCC(C)C (stereo not drawn) [Compound 123]
1 to 5 | CC(C)CCN1C(=O)C(CC(=O)N2CCC(N3Cc4ccccc4NC3=O)CC2)SC1c1ccc(N(C)C)cc1 (stereo not drawn) [Compound 124]
< 1 | CC(C)CCN1C(=O)C(CC(=O)N2CCC(N3CCc4ccccc4NC3=O)CC2)SC1c1cccnc1N1CCOCC1 (stereo not drawn) [Compound 125]
< 1 | O=C(CC1SC(c2ccccc2F)N(CC2CCCCC2)C1=O)N1CCC(N2Cc3ccccc3NC2=O)CC1 (stereo not drawn) [Compound 126]
1 to 5 | CC(C)(C)CCN1C(=O)C(CC(=O)N2CCC(N3CCc4ccccc4NC3=O)CC2)SC1c1cccc2cc[nH]c12 (stereo not drawn) [Compound 130]
> 5 | CC(=O)N1CC2(CCN(C(=O)CC3SC(c4ccccc4)N(CCC(C)C)C3=O)CC2)c2cc(C(F)(F)F)ccc21 (stereo not drawn) [Compound 131]
1 to 5 | CN1C(=O)C(CC(=O)N2CCC(N3CCc4ccccc4NC3=O)CC2)SC1c1ccccc1 (stereo not drawn) [Compound 132]
< 1 | Cc1cccc(C)c1C1SC(CC(=O)N2CCC(N3Cc4ccccc4NC3=O)CC2)C(=O)N1CCC(C)C (stereo not drawn) [Compound 134]
< 1 | O=C(CC1SC(c2ccc(F)cc2F)N(CC2CCCCC2)C1=O)N1CCC(N2CCc3ccccc3NC2=O)CC1 (stereo not drawn) [Compound 135]
< 1 | CC(C)CCN1C(=O)C(CC(=O)N2CCC(N3Cc4ccccc4NC3=O)CC2)SC1c1cc(C(F)(F)F)ccc1F (stereo not drawn) [Compound 136]
< 1 | O=C(CC1SC(c2ccc(F)cc2F)N(CC2CCCCC2)C1=O)N1CCC(N2Cc3ccccc3NC2=O)CC1 (stereo not drawn) [Compound 137]

Further lines, the compound ahead of its results:

Compound | IC50 [µM]
CCOCCCN1C(=O)C(CC(=O)N2CCC(N3CCc4ccccc4NC3=O)CC2)SC1c1ccccc1 (stereo not drawn) [Compound 4] | < 1
CC(C)CCN1C(=O)C(CC(=O)N2CCC(N3Cc4ccccc4NC3=O)CC2)SC1c1ccc(S(C)(=O)=O)cc1 (stereo not drawn) [Compound 5] | 1 to 5
CC(C)CCN1C(=O)C(CC(=O)N2CCC(N3Cc4ccccc4NC3=O)CC2)SC1CCc1ccccc1 (stereo not drawn) [Compound 6] | < 1
CC(C)(C)CCN1C(=O)C(CC(=O)N2CCC(N3CCc4ccccc4NC3=O)CC2)SC1c1ccccc1N1CCCCC1 (stereo not drawn) [Compound 7] | < 1
CC(C)CCN1C(=O)C(CC(=O)N2CCC(N3CCc4ccccc4NC3=O)CC2)SC1[C@@H](C)c1ccccc1 (stereo partly drawn) [Compound 11] | < 1
CC(C)CCN1C(=O)C(CC(=O)N2CCC(N3CCc4ccccc4NC3=O)CC2)SC1c1cc(C(F)(F)F)ccc1F (stereo not drawn) [Compound 13] | < 1
COc1ccc(C2SC(CC(=O)N3CCC(N4Cc5ccccc5NC4=O)CC3)C(=O)N2CCC(C)C)cc1F (stereo not drawn) [Compound 18] | 1 to 5
Cc1cc(C)c(C2SC(CC(=O)N3CCC(N4CCc5ccccc5NC4=O)CC3)C(=O)N2CCC(C)C)c(C)c1 (stereo not drawn) [Compound 21] | < 1
CN1CCN(c2ccccc2[C@H]2SC(CC(=O)N3CCC(n4c(=O)[nH]c5ccccc54)CC3)C(=O)N2CCC(C)(C)C)CC1 (stereo partly drawn) [Compound 22] | 1 to 5
CC(C)CCN1C(=O)C(CC(=O)N2CCC(N3CCc4ccccc4NC3=O)CC2)SC1c1cccc(C(F)(F)F)c1F (stereo not drawn) [Compound 23] | < 1
CC(C)N1C(=O)C(CC(=O)N2CCC(N3CCc4ccccc4NC3=O)CC2)SC1c1ccccc1 (stereo not drawn) [Compound 24] | 1 to 5
CC(C)(C)CCN1C(=O)C(CC(=O)N2CCC(N3Cc4ccccc4NC3=O)CC2)SC1c1c(F)cccc1F (stereo not drawn) [Compound 25] | < 1
Cc1c(F)cccc1C1SC(CC(=O)N2CCC(N3CCc4ccccc4NC3=O)CC2)C(=O)N1CCC(C)C (stereo not drawn) [Compound 26] | < 1
CC(=O)N1CC2(CCN(C(=O)CC3SC(c4ccccc4)N(CCC(C)C)C3=O)CC2)c2cc(C(C)C)ccc21 (stereo not drawn) [Compound 27] | > 5
CC(C)CCN1C(=O)C(CC(=O)N2CCC3(CC2)C(=O)N(C)c2ccccc23)SC1c1ccccc1 (stereo not drawn) [Compound 29] | > 5
CC(C)(C)CCN1C(=O)C(CC(=O)N2CCC(N3Cc4ccccc4NC3=O)CC2)SC12CCSCC2 (stereo not drawn) [Compound 31] | < 1
CC(C)CCN1C(=O)C(CC(=O)N2CCC(N3Cc4ccccc4NC3=O)CC2)SC12CCCCCC2 (stereo not drawn) [Compound 32] | < 1
CN1CCN(c2ccccc2C2SC(CC(=O)N3CCC(N4CCc5ccccc5NC4=O)CC3)C(=O)N2CCC(C)(C)C)CC1 (stereo not drawn) [Compound 34] | < 1
O=C(CC1SC(c2ccccc2)N(CC(F)(F)C(F)(F)F)C1=O)N1CCC(N2Cc3ccccc3NC2=O)CC1 (stereo not drawn) [Compound 36] | < 1
CCCN1C(=O)C(CC(=O)N2CCC(N3CCc4ccccc4NC3=O)CC2)SC1c1ccccc1 (stereo not drawn) [Compound 38] | < 1
O=C(CC1SC(c2ccccc2)N(Cc2ccncc2)C1=O)N1CCC(N2Cc3ccccc3NC2=O)CC1 (stereo not drawn) [Compound 46] | 1 to 5
CN1CCN(c2ccccc2[C@H]2SC(CC(=O)N3CCC(n4c(=O)[nH]c5ncccc54)CC3)C(=O)N2CCC(C)(C)C)CC1 (stereo partly drawn) [Compound 47] | < 1
Cc1cc(C)c(C2SC(CC(=O)N3CCC(N4Cc5ccccc5NC4=O)CC3)C(=O)N2CCC(C)C)c(C)c1 (stereo not drawn) [Compound 51] | < 1
COC(=O)[C@H](CC1CCCCC1)N1C(=O)C(CC(=O)N2CCC(N3Cc4ccccc4NC3=O)CC2)SC1c1ccccc1 (stereo partly drawn) [Compound 55] | 1 to 5
CC(C)(C)CCN1C(=O)C(CC(=O)N2CCC(N3CCc4ccccc4NC3=O)CC2)SC12CCCCCC2 (stereo not drawn) [Compound 57] | < 1
CC(C)CCN1C(=O)C(CC(=O)N2CCC(n3c(=O)[nH]c4ncccc43)CC2)SC1c1ccccc1N1CCN(C)CC1 (stereo not drawn) [Compound 59] | < 1
CC(C)CCN1C(=O)C(CC(=O)N2CCC(N3CCc4ccccc4NC3=O)CC2)SC1c1ccccc1OCc1ccccc1 (stereo not drawn) [Compound 65] | < 1
CC(C)CCN1C(=O)C(CC(=O)N2CCC(n3c(=O)[nH]c4ncccc43)CC2)SC1c1ccccc1 (stereo not drawn) [Compound 69] | < 1
